For experiment [1], the system named is Mycosphaerella graminicola; Anamorph: Septoria tritici. The experiment is described as follows: Leaf Blotch of Wheat fungicidal activity (SEPTTR). The class given is in vivo. The following applies: Zymoseptoria tritici; for pest or weed control at 100 ppm: rate 100 ppm; for pest or weed control at 121.5 g/ha: rate 121.5 g/H. As to the method:
Evaluation of Fungicidal Activity: Leaf Blotch of Wheat (Mycosphaerella graminicola; Anamorph: Septoria tritici; Bayer code […]) Technical grades of materials were dissolved in acetone, which were then mixed with nine volumes of water containing 110 ppm Triton X-100. The fungicide solutions were applied onto wheat seedlings using an automated booth sprayer to run-off. All sprayed plants were allowed to air dry prior to further handling. All fungicides were evaluated using the aforementioned method for their activity vs. all target diseases. Wheat leaf blotch and brown rust activity were also evaluated using track spray applications, in which case the fungicides were formulated as EC formulations, containing 0.1% Trycol 5941 in the spray solutions. Wheat plants (variety Yuma) were grown from seed in a greenhouse in 50% mineral soil/50% soil-less Metro mix until the first leaf was fully emerged, with 7-10 seedlings per pot. These plants were inoculated with an aqueous spore suspension of Septoria tritici either prior to or after fungicide treatments. After inoculation the plants were kept in 100% relative humidity (one day in a dark dew chamber followed by two to three days in a lighted dew chamber at 20° C.) to permit spores to germinate and infect the leaf. The plants were then transferred to a greenhouse set at 20° C. for disease to develop. When disease symptoms were fully expressed on the 1st leaves of untreated plants, infection levels were assessed on a scale of 0 to 100 percent disease severity. Percent disease control was calculated using the ratio of disease severity on treated plants relative to untreated plants.

For experiment [2], the system named is Puccinia triticina. The experiment is described as follows: Wheat Brown Rust fungicidal activity (PUCCRT). It is filed as in vivo. The following applies: Puccinia triticina; for pest or weed control at 100 ppm: rate 100 ppm; for pest or weed control at 121.5 g/ha: rate 121.5 g/H. As to the method: Technical grades of materials were dissolved in acetone, which were then mixed with nine volumes of water containing 110 ppm Triton X-100. The fungicide solutions were applied onto wheat seedlings using an automated booth sprayer to run-off. All sprayed plants were allowed to air dry prior to further handling. All fungicides were evaluated using the aforementioned method for their activity vs. all target diseases. Wheat leaf blotch and brown rust activity were also evaluated using track spray applications, in which case the fungicides were formulated as EC formulations, containing 0.1% Trycol 5941 in the spray solutions. Wheat plants (variety Yuma) were grown from seed in a greenhouse in 50% mineral soil/50% soil-less Metro mix until the first leaf was fully emerged, with 7-10 seedlings per pot. These plants were inoculated with an aqueous spore suspension of Septoria tritici either prior to or after fungicide treatments. After inoculation the plants were kept in 100% relative humidity (one day in a dark dew chamber followed by two to three days in a lighted dew chamber at 20° C.) to permit spores to germinate and infect the leaf. The plants were then transferred to a greenhouse set at 20° C. for disease to develop. When disease symptoms were fully expressed on the 1st leaves of untreated plants, infection levels were assessed on a scale of 0 to 100 percent disease severity. Percent disease control was calculated using the ratio of disease severity on treated plants relative to untreated plants. Evaluation of Fungicidal Activity: Wheat Brown Rust (Puccinia triticina; Synonym: Puccinia recondite f sp. tritici; Bayer code PUCCRT) Wheat plants (variety Yuma) were grown from seed in a greenhouse in 50% mineral soil/50% soil-less Metro mix until the first leaf was fully emerged, with 7-10 seedlings per pot. These plants were inoculated with an aqueous spore suspension of Puccinia triticina either prior to or after fungicide treatments. After inoculation the plants were kept in a dark dew room at 22° C. with 100% relative humidity overnight to permit spores to germinate and infect the leaf. The plants were then transferred to a greenhouse set at 24° C. for disease to develop. Fungicide formulation, application and disease assessment followed the procedures as described in the Example A.

The mark [3] stands for this setting: 24 h, 1 Day Protectant, read-out: Disease control SEPTTR 1DP.
The mark [4] stands for this setting: 72 h, 3 Day Curative, read-out: Disease control SEPTTR 3DC.
The mark [5] stands for this setting: 24 h, 1 Day Protectant, read-out: Disease control PUCCRT 1DP.
The mark [6] stands for this setting: 72 h, 3 Day Curative, read-out: Disease control PUCCRT 3DC.

Like-named read-outs stand apart in the source and are kept apart here.

For `COc1ccnc(C(=O)N[C@H]2COC[C@H](CCC(C)C)[C@@H](OCC(C)C)[C@H](C)OC2=O)c1OC(C)=O` [Compound F68], the pest or weed control at 100 ppm in experiment [1] (setting [3]), in experiment [1] (setting [4]), in experiment [2] (setting [5]) and in experiment [2] (setting [6]) was 80 to 100% in each case. Moreover, the pest or weed control at 121.5 g/ha in experiment [1] (setting [3]), in experiment [1] (setting [4]), in experiment [2] (setting [5]) and in experiment [2] (setting [6]) was 80 to 100% throughout.

As for `COc1ccnc(C(=O)N[C@H]2COC[C@H](CCC(C)C)[C@@H](Oc3ccc(C)cc3)[C@H](C)OC2=O)c1OC(C)=O` [Compound F69], the pest or weed control at 100 ppm in experiment [1] (setting [3]), in experiment [1] (setting [4]), in experiment [2] (setting [5]) and in experiment [2] (setting [6]) was 80 to 100% throughout. Besides, the pest or weed control at 121.5 g/ha was in the range of 80 to 100% in experiment [1] (setting [3]), 80 to 100% in experiment [1] (setting [4]), 80 to 100% in experiment [2] (setting [5]) and 0 to 80% in experiment [2] (setting [6]).

Consider `CCCO[C@@H]1[C@@H](CCC(C)C)COC[C@H](NC(=O)c2nccc(OC)c2OC(C)=O)C(=O)O[C@H]1C` [Compound F70], for which the pest or weed control at 100 ppm in experiment [1] (setting [3]), in experiment [1] (setting [4]), in experiment [2] (setting [5]) and in experiment [2] (setting [6]) was 80 to 100% each time.

Take `COc1ccnc(C(=O)N[C@H]2COC[C@H](CCC(C)C)[C@@H](OC3CCCC3)[C@H](C)OC2=O)c1OC(C)=O` [Compound F71]: the pest or weed control at 100 ppm in experiment [1] (setting [3]), in experiment [1] (setting [4]), in experiment [2] (setting [5]) and in experiment [2] (setting [6]) was 80 to 100% throughout.

As to `COc1ccnc(C(=O)N[C@H]2COC[C@H](Cc3cc(F)c(F)c(F)c3)[C@@H](OCC(C)C)[C@H](C)OC2=O)c1OC(C)=O` [Compound F72], the pest or weed control at 100 ppm in experiment [1] (setting [3]), in experiment [1] (setting [4]), in experiment [2] (setting [5]) and in experiment [2] (setting [6]) was 80 to 100% in each case. In addition, the pest or weed control at 121.5 g/ha in experiment [1] (setting [3]), in experiment [1] (setting [4]), in experiment [2] (setting [5]) and in experiment [2] (setting [6]) was 80 to 100% throughout.

Consider `COc1ccnc(C(=O)N[C@H]2COC[C@H](Cc3cccc4ccccc34)[C@@H](OC3CCCC3)[C@H](C)OC2=O)c1OCOC(C)=O` [Compound F86], for which the pest or weed control at 100 ppm in experiment [1] (setting [3]), in experiment [1] (setting [4]), in experiment [2] (setting [5]) and in experiment [2] (setting [6]) was 80 to 100% each time.

With `COc1ccnc(C(=O)N[C@H]2COC[C@H](Cc3cccc4ccccc34)[C@@H](OCC(C)C)[C@H](C)OC2=O)c1OCOC(C)=O` [Compound F87], the pest or weed control at 100 ppm in experiment [1] (setting [3]), in experiment [1] (setting [4]), in experiment [2] (setting [5]) and in experiment [2] (setting [6]) was 80 to 100% throughout. Moreover, the pest or weed control at 121.5 g/ha in experiment [1] (setting [3]) fell in the range of 80 to 100%; in experiment [1] (setting [4]), 80 to 100%; in experiment [2] (setting [5]), 80 to 100%; in experiment [2] (setting [6]), 0 to 80%.

For `COc1ccnc(C(=O)N[C@H]2COC[C@H](CCc3ccccc3)[C@@H](OC(=O)C3CC3)[C@H](C)OC2=O)c1OCOC(C)=O` [Compound F92], the pest or weed control at 100 ppm in experiment [1] (setting [3]), in experiment [1] (setting [4]), in experiment [2] (setting [5]) and in experiment [2] (setting [6]) was 80 to 100% in each case. Besides, the pest or weed control at 121.5 g/ha in experiment [1] (setting [3]), in experiment [1] (setting [4]), in experiment [2] (setting [5]) and in experiment [2] (setting [6]) was 80 to 100% in each case.

Turning to `COc1ccnc(C(=O)N[C@H]2COC[C@H](Cc3ccc(F)cc3)[C@@H](OCCCC(F)(F)F)[C@H](C)OC2=O)c1OCOC(C)=O` [Compound F93], the pest or weed control at 100 ppm in experiment [1] (setting [3]), in experiment [1] (setting [4]), in experiment [2] (setting [5]) and in experiment [2] (setting [6]) was 80 to 100% throughout. Moreover, the pest or weed control at 121.5 g/ha in experiment [1] (setting [3]), in experiment [1] (setting [4]), in experiment [2] (setting [5]) and in experiment [2] (setting [6]) was 80 to 100% throughout.

Turning to `COc1ccnc(C(=O)N[C@H]2COC[C@H](Cc3ccc(F)cc3)[C@@H](OC3CCCC3)[C@H](C)OC2=O)c1OCOC(C)=O` [Compound F94], the pest or weed control at 100 ppm in experiment [1] (setting [3]), in experiment [1] (setting [4]), in experiment [2] (setting [5]) and in experiment [2] (setting [6]) was 80 to 100% each time. Moreover, the pest or weed control at 121.5 g/ha in experiment [1] (setting [3]), in experiment [1] (setting [4]), in experiment [2] (setting [5]) and in experiment [2] (setting [6]) was 80 to 100% in each case.

As to `CCCCCO[C@@H]1[C@@H](Cc2ccc(F)cc2)COC[C@H](NC(=O)c2nccc(OC)c2OCOC(C)=O)C(=O)O[C@H]1C` [Compound F95], the pest or weed control at 100 ppm in experiment [1] (setting [3]), in experiment [1] (setting [4]), in experiment [2] (setting [5]) and in experiment [2] (setting [6]) was 80 to 100% throughout.

For `COc1ccnc(C(=O)N[C@H]2COC[C@H](Cc3ccc(C)cc3)[C@@H](OC(=O)C3CC3)[C@H](C)OC2=O)c1OCOC(C)=O` [Compound F97], the pest or weed control at 100 ppm in experiment [1] (setting [3]) is 80 to 100%; in experiment [1] (setting [4]), 0 to 80%; in experiment [2] (setting [5]) it was 80 to 100%; in experiment [2] (setting [6]), 80 to 100%. Also, the pest or weed control at 121.5 g/ha in experiment [1] (setting [3]), in experiment [1] (setting [4]), in experiment [2] (setting [5]) and in experiment [2] (setting [6]) was 80 to 100% in each case.

Regarding `COc1ccnc(C(=O)N[C@H]2COC[C@H](Cc3ccc(C(F)(F)F)cc3)[C@@H](OC(=O)C3CC3)[C@H](C)OC2=O)c1OCOC(C)=O` [Compound F98], the pest or weed control at 100 ppm in experiment [1] (setting [3]), in experiment [1] (setting [4]), in experiment [2] (setting [5]) and in experiment [2] (setting [6]) was 80 to 100% throughout. Also, the pest or weed control at 121.5 g/ha in experiment [1] (setting [3]) is 80 to 100%; in experiment [1] (setting [4]), 0 to 80%; in experiment [2] (setting [5]) it was 80 to 100%; in experiment [2] (setting [6]) it was 0 to 80%.

For the compound `COc1ccnc(C(=O)N[C@H]2COC[C@H](Cc3ccc(C(F)(F)F)cc3)[C@@H](OCC(C)C)[C@H](C)OC2=O)c1OCOC(C)=O` [Compound F99], the pest or weed control at 100 ppm in experiment [1] (setting [3]), in experiment [1] (setting [4]), in experiment [2] (setting [5]) and in experiment [2] (setting [6]) was 80 to 100% in each case. The pest or weed control at 121.5 g/ha in experiment [1] (setting [3]) was 80 to 100%; in experiment [1] (setting [4]), 80 to 100%; in experiment [2] (setting [5]) it was 80 to 100%; in experiment [2] (setting [6]), 0 to 80%.

In the case of `COc1ccnc(C(=O)N[C@H]2COC[C@H](Cc3ccc(C(F)(F)F)cc3)[C@@H](OC3CCCC3)[C@H](C)OC2=O)c1OCOC(C)=O` [Compound F100], the pest or weed control at 100 ppm in experiment [1] (setting [3]), in experiment [1] (setting [4]), in experiment [2] (setting [5]) and in experiment [2] (setting [6]) was 80 to 100% in each case. Moreover, the pest or weed control at 121.5 g/ha in experiment [1] (setting [3]) fell in the range of 80 to 100%; in experiment [1] (setting [4]) it was 0 to 80%; in experiment [2] (setting [5]), 80 to 100%; in experiment [2] (setting [6]), 0 to 80%.

Source of the values: patent US9179674B2, “Macrocyclic picolinamide compounds with fungicidal activity” (DOW AGROSCIENCES LLC, priority 2013, dated 2015).
